One may read the viability as a read-out of living cells in per cent, often relative to untreated cells. A higher viability goes with better survival.

Holding throughout (type): cell-based
In test [1] the test system is Listeria monocytogenes. Particulars: monooleate by itself; milk. The procedure:
(§1) All tests in the following examples were performed at 37°C. The efficacy of the enhanced broad range bactericides was determined by assaying bactericidal activity as measured by the percent bacterial survival after treatment with the bactericide. Generally, after incubation of a 10^7 cell per ml suspension of target species with the novel bactericide for specified lengths of time, bacteria were collected by centrifugation for 2 minutes. The bacterial pellet was washed free of the bactericide with a rescue buffer, termed herein Phage buffer (50mM Tris-HCl buffer pH 7.8, 1mM MgSO4, 4mM CaCl2, 0.1 M NaCl, and 0.1% gelatin), resuspended and serially diluted into Phage buffer, and […] of the suspended bacteria were spread on nutrient agar plates. Surviving bacteria were determined by scoring colony forming units (CFU) after incubation for 24-48 hours at 37°C. An effective bactericide according to this invention is one which allows less than 0.1% of the initial viable count of the bacteria to survive.

The subject of test [2] is Streptococcus agalactiae. The experiment in a line: Bactericidal activity (percent bacterial survival, CFU count) in milk at 37°C. Particulars: for % survival at 2hr: Monolaurin 0 %. The procedure: as §1
Thus, when the application of nisin is limited by its available activity, a bactericide comprising nisin with a surfactant can be expected to be more useful.

Test [3] concerns Listeria monocytogenes. The test is described as above. The procedure: as §1

glyceride monooleate: the “bactericidal activity towards L. monocytogenes (in words)” value in test [1] is “no bactericidal activity”.

In the case of `CCCCCCCCCCCC(=O)OCC(O)CO` (stereo not drawn) [Monolaurin, monolaurin], the viability at 0.01 % in test [2] (Streptococcus agalactiae, 2 h, Nisin 0 µg/ml, Monolaurin 0.01 %, 37°C, initial viable counts 6.0 x 10^7 cfu/ml) was 100%. This compound came in with a viability at 0.1 % in test [2] (Streptococcus agalactiae, 2 h, Nisin 0 µg/ml, Monolaurin 0.1 %, 37°C, initial viable counts 6.0 x 10^7 cfu/ml) of 4.5%. The “bactericidal activity towards Streptococcus agalactiae (in words)” value in test [2] (monolaurin alone at concentrations up to 0.1%) is listed as “little significant bactericidal activity”.

Consider “Nisin (ITSISLCTPGCKTGALMGCNMKTATCHCSIHVSK; not fully specified; Lantibiotic nisin-A; UniProt P13068 24-57, looked up) [polypeptide with antimicrobial properties produced by strains of Streptococcus lactis; lanthionine-containing peptide bacteriocin, known food preservative]”, for which the “% survival at 2hr” value is 0.56% in test [3] (Nisin 100 µg/ml, Monooleate 0 %, milk, 37°C, initial viable count 5.0 x 10^7 cfu/ml); 100% in test [2] (Nisin 0.02 µg/ml, 37°C, initial viable counts 6.0 x 10^7 cfu/ml); 2.2% in test [2] (Nisin 0.2 µg/ml, 37°C, initial viable counts 6.0 x 10^7 cfu/ml). Also, the “available nisin activity towards L. monocytogenes (in words)” value in test [3] (nisin alone, complex medium like milk) is “restricted”. Also, the “bactericidal activity in milk (in words)” value in test [2] (nisin alone at concentrations up to 0.2 µg.ml) was “does not exhibit significant bactericidal activity”.

Source of the values: patent EP0545911B1, “Lanthionine-containing bacteriocin compositions for use as bactericides” (APPLIED MICROBIOLOGY, INC., priority 1988, dated 1996).
